From patent US6218379A, “Tricyclic carbacephems” (Hoffmann-la Roche Inc., priority 1996, dated 2001)
Counter-ions that a name gives are not always drawn.

Columns and labels:
[1] = system: Citrobacter freundii 1982; experiment: Antibacterial activity in vitro (MIC) against Citrobacter freundii 1982; format: cell-based; conditions: read-out: MIC C. freundii 1982
Method: (§1) The minimum inhibitory concentration in vitro (MIC in μg/ml) of a compound of formula I against Citrobacter freundii 1982 and Staphylococcus aureus 887 is measured and compiled in Table 2.

[2] = system: Staphylococcus aureus 887; experiment: Antibacterial activity in vitro (MIC) against Staphylococcus aureus 887; format: cell-based; conditions: read-out: MIC S. aureus 887
Method: as §1

Structure (SMILES) | MIC [1] [µg/mL] | MIC [2] [µg/mL]
O=C(O)C1=C(/C=C2\CCN(CC(F)(F)F)C2=O)C[C@@H]2CN[C@@H]3C(=O)N1[C@H]23 [Example 14, (E)-(1aS,3aR,6bR)-1-Oxo-5-[2-oxo-1-(2,2,2-trifluoro-ethyl)-pyrrolidin-3-ylidenemethyl]-1a,2,3,3a,4,6b-hexahydro-1H-2,6a-diaza-cyclobut[cd]indene-6-carboxylic acid trifluoroacetate (1:1)] | 8 | 16
O=C(O)C1=C(/C=C2\CCN(Cc3ccc([N+](=O)[O-])cc3)C2=O)C[C@@H]2CN[C@@H]3C(=O)N1[C@H]23 [Example 15, (E)-(1aS,3aR,6bR)-1-Oxo-5-[2-oxo-1-(4-nitrobenzyl)-pyrrolidin-3-ylidenemethyl]-1a,2,3,3a,4,6b-hexahydro-1H-2,6a-diaza-cyclobut[cd]indene-6-carboxylic acid trifluoroacetate (1:0.77)] | 32 | 8
O=C(O)C1=C(/C=C2\CCN(Cc3cccs3)C2=O)C[C@@H]2CN[C@@H]3C(=O)N1[C@H]23 [Example 16, (E)-(1aS,3aR,6bR)-1-Oxo-5-[2-oxo-1-(thiophen-2-ylmethyl)-pyrrolidin-3-ylidenemethyl]-1a,2,3,3a,4,6b-hexahydro-1H-2,6a-diaza-cyclobut[cd]indene-6-carboxylic acid trifluoroacetate (1:0.75)] | 16 | 8
NC(=O)c1ccc(NC(=O)N2C[C@H]3CC(/C=C4\CCN(CC(F)(F)F)C4=O)=C(C(=O)O)N4C(=O)[C@@H]2[C@@H]34)cc1 [Example 23, (E)-(1aS,3aR,6bR)-2-(4-Carbamoyl-phenylcarbamoyl)-1-oxo-5-[2-oxo-1-(2,2,2-trifluoroethyl)-pyrrolidin-3-ylidenemethyl]-1a,2,3,3a,4,6b-hexahydro-1H-2,6a-diaza-cyclobut[cd]indene-6-carboxylic acid sodium salt (1:1)] | 16 | 16
CC(=O)N1C[C@H]2CC(/C=C3\CCN(c4ccc(O)cc4)C3=O)=C(C(=O)O)N3C(=O)[C@@H]1[C@@H]23 [Example 24, (E)-(1aS,3aR,6bR)-2-Acetyl-1-oxo-5-[2-oxo-1-(4-hydroxyphenyl)-pyrrolidin-3-ylidenemethyl]-1a,2,3,3a,4,6b-hexahydro-1H-2,6a-diaza-cyclobut[cd]indene-6-carboxylic acid sodium salt (1:1)] | 1 | 1
CC(=O)N1C[C@H]2CC(/C=C3\CCN(CC(F)(F)F)C3=O)=C(C(=O)O)N3C(=O)[C@@H]1[C@@H]23 [Example 25, (E)-(1aS,3aR,6bR)-2-Acetyl-1-oxo-5-[2-oxo-1-(2,2,2-trifluoroethyl)-pyrrolidin-3-ylidenemethyl]-1a,2,3,3a,4,6b-hexahydro-1H-2,6a-diaza-cyclobut[cd]indene-6-carboxylic acid sodium salt (1:1)] | 1 | 4
CC(=O)N1C[C@H]2CC(/C=C3\CCN(Cc4ccc([N+](=O)[O-])cc4)C3=O)=C(C(=O)O)N3C(=O)[C@@H]1[C@@H]23 [Example 26, (E)-(1aS,3aR,6bR)-2-Acetyl-1-oxo-5-[2-oxo-1-(4-nitro-benzyl)-pyrrolidin-3-ylidenemethyl]-1a,2,3,3a,4,6b-hexahydro-1H-2,6a-diaza-cyclobut[cd]indene-6-carboxylic acid sodium salt (1:1)] | 8 | 2
CC(=O)N1C[C@H]2CC(/C=C3\CCN(Cc4cccs4)C3=O)=C(C(=O)O)N3C(=O)[C@@H]1[C@@H]23 [Example 27, (E)-(1aS,3aR,6bR)-2-Acetyl-1-oxo-5-[2-oxo-1-(thiophen-2-ylmethyl)-pyrrolidin-3-ylidenemethyl]-1a,2,3,3a,4,6b-hexahydro-1H-2,6a-diaza-cyclobut[cd]indene-6-carboxylic acid sodium salt (1:1)] | 4 | 2
CC(=O)N1C[C@H]2CC(/C=C3\CCN(CC(C)C)C3=O)=C(C(=O)O)N3C(=O)[C@@H]1[C@@H]23 [Example 28, (E)-(1aS,3aR,6bR)-2-Acetyl-1-oxo-5-[2-oxo-1-isobutyl-pyrrolidin-3-ylidenemethyl]-1a,2,3,3a,4,6b-hexahydro-1H-2,6a-diaza-cyclobut[cd]indene-6-carboxylic acid sodium salt (1:1)] | 2 | 8
CC(=O)N1C[C@H]2CC(/C=C3\CCN(C4CC4)C3=O)=C(C(=O)O)N3C(=O)[C@@H]1[C@@H]23 [Example 29, (E)-(1aS,3aR,6bR)-2-Acetyl-1-oxo-5-[1-cyclopropyl-2-oxo-pyrrolidin-3-ylidenemethyl]-1a,2,3,3a,4,6b-hexahydro-1H-2,6a-diaza-cyclobut[cd]indene-6-carboxylic acid sodium salt (1:1)] | 1 | 16
CC(=O)N1C[C@H]2CC(/C=C3\CCN(c4cccc([N+](=O)[O-])c4)C3=O)=C(C(=O)O)N3C(=O)[C@@H]1[C@@H]23 [Example 30, (E)-(1aS,3aR,6bR)-2-Acetyl-1-oxo-5-[1-(3-nitrophenyl)-2-oxo-pyrrolidin-3-ylidenemethyl]-1a,2,3,3a,4,6b-hexahydro-1H-2,6a-diaza-cyclobut[cd]indene-6-carboxylic acid sodium salt (1:1)] | 4 | 1
CC(=O)N1C[C@H]2CC(/C=C3\CCN(c4ccccc4)C3=O)=C(C(=O)O)N3C(=O)[C@@H]1[C@@H]23 [Example 31, (E)-(1aS,3aR,6bR)-2-Acetyl-1-oxo-5-[2-oxo-1-phenyl-pyrrolidin-3-ylidenemethyl]-1a,2,3,3a,4,6b-hexahydro-1H-2,6a-diaza-cyclobut[cd]indene-6-carboxylic acid sodium salt (1:1)] | 8 | 2
CCOC(=O)N1CCC(N2CC/C(=C\C3=C(C(=O)O)N4C(=O)[C@@H]5[C@H]4[C@H](C3)CN5C(C)=O)C2=O)CC1 [Example 32, (E)-(1aS,3aR,6bR)-2-Acetyl-1-oxo-5-[1-(1-ethoxycarbonyl-piperidin-4-yl)-2-oxo-pyrrolidin-3-ylidenemethyl]-1a,2,3,3a,4,6b-hexahydro-1H-2,6a-diaza-cyclobut[cd]indene-6-carboxylic acid sodium salt (1:1)] | 62 | 8
CC(=O)N1C[C@H]2CC(/C=C3\CCN(c4cccnc4)C3=O)=C(C(=O)O)N3C(=O)[C@@H]1[C@@H]23 [Example 33, (E)-(1aS,3aR,6bR)-2-Acetyl-1-oxo-5-[2-oxo-1-pyridin-3-yl-pyrrolidin-3-ylidenemethyl]-1a,2,3,3a,4,6b-hexahydro-1H-2,6a-diaza-cyclobut[cd]indene-6-carboxylic acid sodium salt (1:1)] | 1 | 2
O=C(O)C1=C(/C=C2\CCN(c3cccc([N+](=O)[O-])c3)C2=O)C[C@@H]2CN(C(=O)C(F)(F)F)[C@@H]3C(=O)N1[C@H]23 [Example 34, (E)-(1aS,3aR,6bR)-1-Oxo-5-[2-oxo-1-(3-nitro-phenyl)-pyrrolidin-3-ylidenemethyl]-2-trifluoroacetyl-1a,2,3,3a,4,6b-hexahydro-1H-2,6a-diaza-cyclobut[cd]indene-6-carboxylic acid sodium salt (1:1)] | 8 | 4
